From patent publication US6812251B2, “Taurine compounds” (priority 2001, dated 2004) come the findings set out here.

Data set [1] relates to PA1 human ovarian tumor cells. Put plainly: Tumor cell growth inhibition, PA1 cells (cell counting). Type of data set: cell-based. To be noted: PA-1, 5-100 μM, 3 d (72 h) exposure, electronic cell counting, mean ± SE, read-out: IC50 (concentration required to inhibit cell number by 50%).
For data set [2], the system named is DU-145 human prostate tumor cells. Put plainly: Flow cytometry (propidium iodide) apoptosis, sub-G0/G1 peak. The format is cell-based. To be noted: DU-145 cells, 50 μM, 24 h.
A short description of data set [3]: Growth inhibition of a panel of cell lines by taurolidine. The format is cell-based. To be noted: range over all cell lines evaluated; read-out: IC50s, growth inhibition.
Data set [4] in a line: Stability in solution. The format is physicochemical. The text has this: The prolonged stability is an advantage over taurolidine.

For `O=S1(=O)CCN(CN2CCS(=O)(=O)NC2)CN1` [Taurolidine, Bis-(1,1-dioxoperhydro-1,2,4-thiadiazinyl-4)methane], the values for the IC50 in data set [1] and in data set [3] were 11.4 ± 1.8 µM and 9.6 to 45 µM, respectively. In addition, in data set [2], the “% apoptosis (sub-G0/G1 peak area)” value was 12.27%. Further, the stability in solution result in data set [4] is “very unstable in solution and spontaneously decomposes”.
